The supplement of paper PMC5762512

Tests used:
Test in all cases: IC50 cell viability (Alamar Blue, 96 h)
10326 = tested on: 10326
Experimental: (§1)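 Cells in log-phase growth were seeded in 96-well plates and treated with drug for 96 h at 37°C using 8-point serial dilutions from 0.0025 to 10 µM. Viability was read by Alamar Blue fluorescence after 6 h and normalised to positive and vehicle (DMSO) controls. IC50 values were fitted in ActivityBase; the value given is the mean of two independent experiments.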

11060 = tested on: 11060
Experimental: as §1

14169 = tested on: 14169
Experimental: as §1

8645 = tested on: 8645
Experimental: as §1

A549 = tested on: A549
Experimental: as §1

CAKI-1 = tested on: CAKI-1
Experimental: as §1

HCC2429 = tested on: HCC2429
Experimental: as §1

HS-27 = tested on: HS-27
Experimental: as §1

P896-CL = tested on: P896-CL
Experimental: as §1

PER-403 = tested on: PER-403
Experimental: as §1

PER-535 = tested on: PER-535
Experimental: as §1

PER-536 = tested on: PER-536
Experimental: as §1

PER-624 = tested on: PER-624
Experimental: as §1

PER-704 = tested on: PER-704
Experimental: as §1

PER-712 = tested on: PER-712
Experimental: as §1

PER-891 = tested on: PER-891
Experimental: as §1

RPMI2650 = tested on: RPMI2650
Experimental: as §1

TC797 = tested on: TC797
Experimental: as §1

TY82 = tested on: TY82
Experimental: as §1

WI-38 = tested on: WI-38
Experimental: as §1

IC50 cell viability (A549)	IC50 cell viability (HCC2429)	SMILES	IC50 cell viability 10326	IC50 cell viability 11060	IC50 cell viability 14169	IC50 cell viability 8645	IC50 cell viability (CAKI-1)	IC50 cell viability (HS-27)	IC50 cell viability (P896-CL)	IC50 cell viability (PER-403)	IC50 cell viability (PER-535)	IC50 cell viability (PER-536)	IC50 cell viability (PER-624)	IC50 cell viability (PER-704)	IC50 cell viability (PER-712)	IC50 cell viability (PER-891)	IC50 cell viability (RPMI2650)	IC50 cell viability (TC797)	IC50 cell viability (TY82)	IC50 cell viability (WI-38)
0.738 µM	0.159 µM	COc1cc2c(cc1-c1c(C)noc1C)ncc1[nH]c(=O)n([C@H](C)c3ccccn3)c12 [I-BET 151]	0.0435 µM	0.937 µM	0.178 µM	0.529 µM	7.15 µM	4.37 µM	3.15 µM	0.129 µM	1.14 µM	4.21 µM	3.24 µM	0.95 µM	1.94 µM	9.29 µM	6.81 µM	> 10 µM	0.584 µM	1.76 µM
2.07 µM	1.17 µM	O=C(CCCCCCC(=O)Nc1ccccc1)NO [Vorinostat]	0.514 µM	2.74 µM	1.22 µM	0.561 µM	4.1 µM	4.29 µM	3.19 µM	0.732 µM	2.44 µM	> 10 µM	1.54 µM	2.14 µM	3.45 µM	> 10 µM	5.84 µM	7.21 µM	2.24 µM	4.45 µM
0.061 µM	0.0403 µM	CN1CC[C@H](c2c(O)cc(O)c3c(=O)cc(-c4ccccc4Cl)oc23)[C@H](O)C1 [Flavopiridol]	0.0254 µM	0.0272 µM	0.0248 µM	0.0177 µM	0.122 µM	0.108 µM	0.0248 µM	0.0466 µM	0.131 µM	0.273 µM	0.0428 µM	0.0708 µM	0.0825 µM	0.0695 µM	0.14 µM	0.0844 µM	0.0647 µM	0.0846 µM
0.00964 µM	0.00762 µM	Nc1ccn([C@@H]2O[C@H](CO)[C@@H](O)C2(F)F)c(=O)n1 [Gemcitabine]	0.0147 µM	0.00977 µM	0.00673 µM	0.0124 µM	0.135 µM	0.137 µM	0.0296 µM	0.00492 µM	0.00526 µM	0.00538 µM	0.00622 µM	0.0362 µM	0.0492 µM	0.568 µM	3.33 µM	0.0166 µM	0.0775 µM	0.341 µM

The next lines start with the compound.

SMILES	IC50 cell viability (A549)	IC50 cell viability (HCC2429)	IC50 cell viability 10326	IC50 cell viability 11060	IC50 cell viability 14169	IC50 cell viability 8645	IC50 cell viability (CAKI-1)	IC50 cell viability (HS-27)	IC50 cell viability (P896-CL)	IC50 cell viability (PER-403)	IC50 cell viability (PER-535)	IC50 cell viability (PER-536)	IC50 cell viability (PER-624)	IC50 cell viability (PER-704)	IC50 cell viability (PER-712)	IC50 cell viability (PER-891)	IC50 cell viability (RPMI2650)	IC50 cell viability (TC797)	IC50 cell viability (TY82)	IC50 cell viability (WI-38)
O=C1c2c(O)ccc(O)c2C(=O)c2c(NCCNCCO)ccc(NCCNCCO)c21 [Mitoxantrone]	< 0.0025 µM	0.01 µM	< 0.0025 µM	0.00736 µM	< 0.0025 µM	< 0.0025 µM	1.12 µM	0.0417 µM	0.0109 µM	0.00531 µM	0.0107 µM	0.144 µM	0.0128 µM	0.142 µM	0.57 µM	0.266 µM	1.28 µM	0.141 µM	0.314 µM	0.108 µM
CC(=O)O[C@@]12CO[C@@H]1C[C@H](O)[C@@]1(C)C(=O)[C@H](O)C3=C(C)[C@@H](OC(=O)[C@H](O)[C@@H](NC(=O)OC(C)(C)C)c4ccccc4)C[C@@](O)([C@@H](OC(=O)c4ccccc4)[C@H]21)C3(C)C [Docetaxel]	< 0.0025 µM	< 0.0025 µM	< 0.0025 µM	< 0.0025 µM	< 0.0025 µM	< 0.0025 µM	5 µM	< 0.0025 µM	0.00308 µM	< 0.0025 µM	0.00625 µM	0.0164 µM	< 0.0025 µM	0.00411 µM	0.0032 µM	> 10 µM	> 10 µM	0.00388 µM	0.00964 µM	0.00282 µM
